According to patent publication US20220313777A1, “INHALED DELIVERY OF PEPTIDE MIMICS OF CXCL10 FOR TARGETED ANTI-FIBROTIC THERAPY” (University of Pittsburgh - Of the Commonwealth System of …, priority 2019, published 2022):

How the values were obtained:
[1] = system: primary lung fibroblasts from scleroderma patients; assay: RT-qPCR of pro-fibrotic mRNAs in TGF-β-treated primary lung fibroblasts; assay type: cell-based, human; conditions: peptide 10 ng/mL plus TGF-β 10 ng/mL, 24 hours, delta-delta Ct, GAPDH housekeeping
Protocol: Primary lung fibroblasts from scleroderma patients were treated with TGF-β alone, or with IP-10-1 (SEQ ID NO: 2; FIGS. 1A-1C), IP-10-2 (SEQ ID NO: 3; FIGS. 1D-1F), or IP-10-3 (SEQ ID NO: 4; FIGS. 1G-1I) peptide (10 ng/mL) in the presence or absence of TGF-β (10 ng/mL) for 24 hours and then analyzed by RT-qPCR for the fibrotic ECM markers tenascin C (FIGS. 1A, 1D, 1G), collagen 1 (FIGS. 1B, 1E, 1H) and fibronectin (FIGS. 1C, […], 1I). Treatment with TGF-β alone induced expression of mRNAs for tenascin C (TNC), collagen 1 (COL1A1), and fibronectin (FN1) in primary lung fibroblasts. When cells were treated with an IP-10 peptide in combination with TGF-β, the IP-10 peptides reduced or prevented induction in mRNA expression of TNC, COL1A1, and FN1.
Primary lung fibroblasts from scleroderma patients were plated in 6-well plates in complete medium and incubated overnight. The next day, the medium was changed to quiescent medium and the cells were incubated in this medium for 24 hours. The following day, cells were left untreated, treated with 10 ng/mL of IP-10-1 (SEQ ID NO: 2), IP-10-2 (SEQ ID NO: 3) or IP-10-3 (SEQ ID NO: 4) peptide, treated with 10 ng/mL TGF-β, or treated with the combination of peptide and TGF-β for 24 hours. Total RNA was extracted using the Qiagen miRNeasy kit (Qiagen) and treated with DNase1, according to the manufacturer's instructions. RNA was then quantified and converted to cDNA using the Clontech RNA to cDNA EcoDry Double Primed Premix (Takara). qPCR was performed using PowerUp Sybr Green (Invitrogen) on an Applied Biosystems Quant Studio 3 instrument. Primers were from IDT and were designed using IDT Primer Quest and NCBI Primer Blast tools. The delta-delta Ct method was used to determine relative expression of the pro-fibrotic mRNAs for tenascin C (TNC), collagen 1 (COL1A1), and fibronectin (FN1). GAPDH was used as a housekeeping gene.

angiogenesis = conditions: earlier work, not tested in anti-fibrotic applications; cited from earlier work
CXCR3B isoform = molecular target: T1, CXCR3B isoform (Homo sapiens, UniProt P49682); conditions: described in WO 2013/032853 and WO 2015/112505; cited from earlier work
T1 construct: host or cells: dermal endothelial cells (as described in the cited PCT publications)
T1 sequence (P49682 1-415 isoform P49682-2): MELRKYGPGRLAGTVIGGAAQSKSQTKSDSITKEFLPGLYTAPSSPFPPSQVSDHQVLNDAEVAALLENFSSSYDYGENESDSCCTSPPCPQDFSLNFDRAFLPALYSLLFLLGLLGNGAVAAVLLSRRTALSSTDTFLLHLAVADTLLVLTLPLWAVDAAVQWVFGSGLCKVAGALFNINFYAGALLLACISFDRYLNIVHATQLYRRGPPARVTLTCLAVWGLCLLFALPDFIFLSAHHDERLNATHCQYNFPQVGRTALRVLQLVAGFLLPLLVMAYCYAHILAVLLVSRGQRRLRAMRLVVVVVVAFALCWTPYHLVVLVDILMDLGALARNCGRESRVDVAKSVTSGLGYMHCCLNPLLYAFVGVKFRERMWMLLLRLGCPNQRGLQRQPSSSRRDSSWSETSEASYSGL

FAKAIKNFAKAVAKFA [IP-10-3, CXCL10 (IP-10) peptide variant]
expression of collagen 1 (COL1A1) mRNA relative to treatment with TGF-β alone [1]: significantly reduced or prevented
expression of fibronectin (FN1) mRNA relative to treatment with TGF-β alone [1]: significantly reduced or prevented
expression of tenascin C (TNC) mRNA relative to treatment with TGF-β alone [1]: significantly reduced or prevented

PESKAIKNLLKAVSKEMSKRSP [IP-10p, CXCL10 peptide consisting of the α-helical domain (residues 77-98 of human CXCL10)]
inhibition of angiogenesis (angiogenesis): able to inhibit angiogenesis
activation of the CXCR3B isoform (CXCR3B isoform): activates the CXCR3B isoform

PESKVIKNLLKVASKERSKRSP [IP-10-1, CXCL10 (IP-10) peptide variant]
expression of collagen 1 (COL1A1) mRNA relative to treatment with TGF-β alone [1]: significantly reduced or prevented
expression of fibronectin (FN1) mRNA relative to treatment with TGF-β alone [1]: significantly reduced or prevented
expression of tenascin C (TNC) mRNA relative to treatment with TGF-β alone [1]: significantly reduced or prevented

PESRVIKNLLRVVSKEKSRRSP [IP-10-2, CXCL10 (IP-10) peptide variant]
expression of collagen 1 (COL1A1) mRNA relative to treatment with TGF-β alone [1]: significantly reduced or prevented
expression of fibronectin (FN1) mRNA relative to treatment with TGF-β alone [1]: significantly reduced or prevented
expression of tenascin C (TNC) mRNA relative to treatment with TGF-β alone [1]: significantly reduced or prevented
